PubChem BioAssay (NCI)
“And” between values parts separate entries of the source, which are not always exact repeats. Equal values may be shown once.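 Five concentrations, 48 hours, 96-well plates. Abbreviation: GI50, concentration required for 50% inhibition of growth. TGI is the concentration that stops growth completely.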 Where a SMILES comes first, the peptide text is derived from it. [ ]: non-standard residue; d: D form. Orn = NCCC[CH](N)C(=O)O

Legend:
Assay in all cases: NCI tumour cell line growth inhibition, 48 h
HL-60(TB) leukemia = test system: HL-60(TB) leukemia
MDA-MB-435 = test system: MDA-MB-435
SK-MEL-5 melanoma = test system: SK-MEL-5 melanoma
MALME-3M melanoma = test system: MALME-3M melanoma
BT-549 breast = test system: BT-549 breast
MDA-MB-231 breast = test system: MDA-MB-231 breast
OVCAR-8 ovarian = test system: OVCAR-8 ovarian
786-0 renal = test system: 786-0 renal
NCI/ADR-RES ovarian = test system: NCI/ADR-RES ovarian
SK-MEL-28 melanoma = test system: SK-MEL-28 melanoma

SMILES	GI50 (HL-60(TB) leukemia)	TGI (HL-60(TB) leukemia)	GI50 (MDA-MB-435)	TGI (MDA-MB-435)	GI50 (SK-MEL-5 melanoma)	TGI (SK-MEL-5 melanoma)	GI50 (MALME-3M melanoma)	TGI (MALME-3M melanoma)	GI50 (BT-549 breast)	TGI (BT-549 breast)	GI50 (MDA-MB-231 breast)	TGI (MDA-MB-231 breast)	GI50 (OVCAR-8 ovarian)	TGI (OVCAR-8 ovarian)	GI50 (786-0 renal)	TGI (786-0 renal)	GI50 (NCI/ADR-RES ovarian)	TGI (NCI/ADR-RES ovarian)	GI50 (SK-MEL-28 melanoma)	TGI (SK-MEL-28 melanoma)
OCCCNC(=S)Nc1ccc(-c2nc3ccccc3s2)cc1	25.5 µM	> 100 µM	17.9 µM	50.8 µM	20.9 µM	47.1 µM	19.3 µM	52.7 µM	25 µM	82.9 µM	16.5 µM	43.5 µM	33.7 µM	91.9 µM	22.8 µM	55.2 µM	25.2 µM	66.6 µM	24.9 µM	70.3 µM
O=C(Nc1ncc(Cc2ccc(Cl)cc2)s1)c1ccc2c(c1)OCCO2	0.0537 µM	–	0.0197 µM	0.0459 µM	0.0539 µM	1.42 µM	0.059 µM	> 86.5 µM	0.207 µM	> 83.4 µM	0.176 µM	3.15 µM	0.17 µM	> 100 µM	0.0728 µM	> 100 µM	0.0393 µM	5.58 µM	1.02 µM	> 100 µM
O=S(=O)(c1ccccc1)C1CN(Cc2ccccc2)CCN(Cc2ccccc2)C1	–	34.4 µM	–	86.6 µM	–	59.3 µM	–	> 86.3 µM	–	> 100 µM	–	> 100 µM	–	> 60.3 µM	–	> 100 µM	–	78.1 µM	–	> 100 µM
COc1ccc2c(c1)CC[C@@H]1[C@@H]2CC[C@]2(C)c3c(cc(C(=O)c4ccccc4)c4sccc34)C[C@@H]12	6.73 µM	> 100 µM	> 100 µM	> 100 µM	> 100 µM	> 100 µM	> 100 µM	> 100 µM	> 100 µM	> 100 µM	> 100 µM	> 100 µM	> 100 µM	> 100 µM	> 100 µM	> 100 µM	> 100 µM	> 100 µM	> 100 µM	> 100 µM
CCN(CC)CCCC(C)Nc1ccnc2cc(Cl)c(SCc3ccccc3)cc12 (centres undefined)	1.81 µM	4.23 µM	0.275 µM	0.838 µM	1.31 µM	2.58 µM	1.71 µM	3.68 µM	1.78 µM	3.28 µM	1.27 µM	2.9 µM	1.73 µM	3.44 µM	1.47 µM	2.85 µM	1.44 µM	3.17 µM	1.15 µM	2.41 µM
Cc1ccc(S(=O)(=O)C2=C3C(=C(c4ccccc4)c4ccccc43)CN(S(=O)(=O)c3ccc(C)cc3)C2)cc1	11.2 µM	> 100 µM	3.76 µM	17.9 µM	5.04 µM	18.3 µM	9.71 µM	29.2 µM	1.93 µM	4.65 µM	2.9 µM	11.1 µM	2.65 µM	38.1 µM	1.67 µM	3.22 µM	2.98 µM	90.7 µM	15 µM	52.3 µM
CCNCCNc1cc(C2CCCC2)c(C#N)c2nc3ccccc3n12	2.01 µM	4.3 µM	2.62 µM	7.62 µM	1.75 µM	3.31 µM	1.73 µM	3.45 µM	2.45 µM	5.84 µM	2.37 µM	5.27 µM	3.52 µM	10.6 µM	2.69 µM	9.79 µM	4.55 µM	19 µM	1.84 µM	3.68 µM
CC(C)CC1NC(=O)C(CCCN)NC(=O)C(C(C)C)NC(=O)C2CCCN2C(=O)C(Cc2ccccc2)NC(=O)C(CC(C)C)NC(=O)C(CCCN)NC(=O)C(C(C)C)NC(=O)C2CCCN2C(=O)C(Cc2ccccc2)NC1=O (centres undefined) (cyclo(FPV[Orn]LFPV[Orn]L); configuration not given here)	0.0151 µM and 0.0371 µM	0.104 µM and 0.251 µM	0.00425 µM	0.371 µM and 1.21 µM	0.00725 µM	0.0199 µM and 0.0229 µM	0.0108 µM and 0.0286 µM	0.12 µM and 0.0929 µM	0.0326 µM and 0.0459 µM	0.261 µM and 0.271 µM	0.0209 µM and 0.0242 µM	0.146 µM and 0.0877 µM	0.0113 µM and 0.0252 µM	0.591 µM and 1.32 µM	0.0451 µM and 0.0506 µM	0.46 µM and 1.26 µM	0.614 µM and 2.14 µM	5.05 µM and 13.3 µM	0.0395 µM	0.962 µM and 1.63 µM
COc1ccc(-c2oncc2-c2cc(OC)c3c(c2)OCO3)cc1	2.53 µM	> 26.5 µM	0.275 µM	1.27 µM	2.84 µM	14.1 µM	> 100 µM	> 100 µM	5.24 µM	> 100 µM	2.8 µM	54 µM	4.86 µM	> 100 µM	7.67 µM	> 100 µM	1.63 µM	24.4 µM	3.21 µM	> 100 µM
CNC(=S)N/N=C(/C)CCC/C(C)=N/NC(=S)NC	–	> 100 µM	–	> 100 µM	–	> 100 µM	–	> 100 µM	–	> 100 µM	–	> 100 µM	–	> 100 µM	–	> 100 µM	–	> 100 µM	–	> 100 µM
O=C(Nc1cccc2ccccc12)c1cc2ccccc2cc1O	2.37 µM	8.22 µM	1.87 µM	5.05 µM	1.57 µM	3.69 µM	0.562 µM	3.9 µM	3.6 µM	16.4 µM	1.77 µM	4.46 µM	2.52 µM	8.25 µM	3.43 µM	17.2 µM	2.17 µM	8.07 µM	3.58 µM	22.4 µM
Cc1ccc(C2CC(c3cccc(Nc4ccncc4)c3)=NN2c2ccc(Cl)cc2)cc1 (centres undefined)	1.92 µM	4 µM	1.6 µM	2.97 µM	1.76 µM	3.16 µM	1.6 µM	3.05 µM	1.81 µM	3.4 µM	1.41 µM	2.78 µM	–	–	1.71 µM	3.16 µM	1.87 µM	3.88 µM	1.83 µM	3.32 µM
COc1ccc2c(c1)c(=O)oc1cc(OC/C(=N\O)c3ccc(F)cc3)ccc12	–	–	12.6 µM	36.2 µM	16.6 µM	30.8 µM	16.3 µM	44.2 µM	18.8 µM	44.2 µM	18 µM	43.4 µM	27.3 µM	97.5 µM	13.6 µM	33.7 µM	18.2 µM	49.7 µM	15.7 µM	31 µM
Cc1cc(NC(=O)C(=O)Cc2nc3ccccc3s2)ccc1Cl	–	–	–	> 100 µM	–	> 100 µM	–	> 100 µM	–	> 100 µM	–	> 100 µM	–	> 100 µM	–	> 100 µM	–	> 100 µM	–	> 100 µM
